Paper PMC6222636, “Determination of Novel Highly Effective Necrostatin Nec-1s in Rat Plasma by High Performance Liquid Chromatography Hyphenated with Quadrupole-Time-of-Flight Mass Spectrometry” (Molecules : A Journal of Synthetic Chemistry and Natural …, 2018)
“And” between values parts separate entries of the source, which are not always exact repeats. Identical values can stand only once. Like-named read-outs stand apart in the source and are kept apart here.

Assays:
[1] = system: indoleamine 2,3-dioxygenase (IDO); parameters: method as in PMID 23190609; conditions: cited from earlier work
[2] = system: receptor interacting protein 1 (RIP1); conditions: cited from earlier work; for IC50: RIP1 inhibitor potency
[3] = parameters: method as in PMID 23190609; conditions: cited from earlier work
[4] = system: abdominal aortic aneurisms (elastase perfusion); parameters: method as in PMID 28186202; conditions: mice with aneurysm induced by elastase perfusion, cited from earlier work
[5] = parameters: method as in PMID 23190609; conditions: cited from earlier work; remark: listed apart in the source
[6] = system: receptor interacting protein 1 (RIP1); experiment: RIP1 inhibition (necrostatin potency); format: biochemical; conditions: Nec-1s vs Nec-1
[7] = Nec-1s plasma levels in rats by HPLC-Q-TOF after i.v. bolus; format: in vivo, male Wistar rats; conditions: for concentration at 50 min: male, Wistar, rat, plasma, iv, 0.37 mg/kg
Description: The developed and validated HPLC-Q-TOF method was applied for the determination of real plasma concentrations of Nec-1s in 5 male Wistar rats after i.v. administration of a bolus dose of Nec-1s (0.37 mg/kg). The samples taken from each subject were prepared and analyzed in triplicate. […] The measured data were consistent to each other with plasma concentrations in the range of 319.81–466.52 nM, and mean value of 377.26 nM. The differences in the found concentrations can be explained by different metabolism in the studied animals.
A total of 11 male Wistar rats (250–300 g body weight) were housed under standard conditions with a controlled light/dark cycle (12/12 h) and temperature (22 °C ± 2 °C), and fed a standard diet and tap water ad libitum. The anesthetized animals (natrium pentobarbital 60 mg/kg, i.p.) were randomized in two groups to receive either vehicle (C, n = 6) or Nec-1s (N, n = 5) and blood was collected from the abdominal aorta 50-min after drug application (a bolus dose; 0.37 mg/kg, i.v.; diluted in 20% v/v DMSO) into EDTA-containing syringes (S-Monovette, Starstedt, Germany). To obtain plasma, the blood was centrifuged at 4 °C for 15 min at 4000× g. The aliquots of plasma were stored at −80 °C until further procedure.
An aliquot of plasma was thawed at laboratory temperature. Afterwards, the rat plasma (180 µL) was mixed with the internal standard solution (20 µL, 1.25 µg/mL of prednisone in 50% (v/v) methanol). […] The precipitated sample was vortexed for 5 min (2400 rpm) and then centrifuged for 10 min (15000× g; 4 °C). After the centrifugation, 800 µL of supernatant was transferred into another tube and evaporated to dryness under a gentle stream of nitrogen at ambient temperature. The residuals were reconstituted with 100 µL of mobile phase (25:75 mixture of acetonitrile and water containing 0.1% formic acid) and an aliquot of the solution (5 µL) was used for the HPLC-DAD-Q-TOF analysis.
All of the analyses were carried out on the chromatographic apparatus consisting of LC Agilent Infinity System (Agilent Technologies, Santa Clara, CA, USA) equipped with a gradient pump (1290 Bin Pump VL), an automatic injector (1260 HiPals), and column thermostat (1290 TCC; set at 4 °C). The LC system was hyphenated with a photodiode array detector (Infinity 1290 DAD), and quadrupole time-of-flight (Q-TOF) mass spectrometer (Agilent 6520 Accurate-Mass Q-TOF LC/MS) equipped with the electrospray ionization (ESI) source operated in a positive ionization mode. A computer with a MassHunter software (version MassHunter Workstation B.05.01, Agilent Technologies) was used to control the apparatus as well as acquire and process the data. The Q-TOF mass spectrometer was operated under following parameters: drying gas temperature 360 °C, drying gas flow 12 L/min, nebulizing gas pressure 60 psi, capillary voltage 5500 V, fragmentor voltage 125 V, skimmer voltage 65 V, OctopoleRFPeak 550 V, and collision gas N2. […] In the processing the exact (theoretical) masses of their [M + H]^+ (278.0691 for Nec-1s; 359.1853 for prednisone), and [M + Na]^+ (300.0510 for Nec-1s; 381.1672 for prednisone) adducts were used. For the MS spectra obtained by the analysis of the stock solutions of Nec-1s and prednisone see Figure 4. The theoretical and experimentally found masses of the Nec-1s and prednisone adducts were in a very good mutual agreement so that Q-TOF was suitable for an unambiguous confirmation of the identity of the analyzed compounds in the samples. The EIC were extracted with m/z expansion of ±10 ppm. In case of DAD detector, the peak areas of the analyte and IS were evaluated at the wavelength of 280 nm.
The chromatographic separation of the Nec-1s was achieved by using RP-C18 chromatographic column–Zorbax Extend-C18, 2.1 × 50 mm, 1.8 µm obtained from Agilent Technologies. A gradient elution of mobile phases consisting of 0.1% formic acid in LC-MS water (A) and 0.1% formic acid in acetonitrile (B) was used. […]

[8] = parameters: method as in PMID 28946210; conditions: rat plasma, cited from earlier work
[9] = individual rats N1-N5, 50 min after i.v. bolus dose 0.37 mg/kg, n = 3 analyses

For `O=C1NC(=S)NC1Cc1c[nH]c2ccccc12` (centres unmarked) [Nec-1i], the “effect on IDO” value [1] is listed as “found to be an IDO inhibitor” and the “capability to inhibit RIP1” value [2] is listed as “lacking the capability to inhibit RIP1”.
In the case of `CN1C(=O)NC(Cc2c[nH]c3c(Cl)cccc23)C1=O` (centres unmarked) [Nec-1s, 5-((7-chloro-1H-indol-3-yl)methyl)-3-methyl-2,4-imidazolidinedione], the “metabolic stability in comparison to Nec-1” value [3] is given as “metabolically more stable”, the aortic expansion ([4]; control 172.80%, p < 0.05) is given as 64.12% and the “in vivo and in vitro toxicity compared with Nec-1” value [5] is given as “reduced”. The “effect on IDO” value [1] was “does not influence IDO”, the “inhibition activity relative to Nec-1” value [6] was 2 times and the “Plasma Concentration (nM)” value [7, 9] was 327.43 nM and 398.08 nM and 319.81 nM and 466.52 nM. The “Plasma Concentration (ng/mL)” value [7, 9] was 90.93 ng/mL and 110.55 ng/mL and 88.81 ng/mL and 129.56 ng/mL, the concentration at 50 min ([7]; 50 min after i.v. bolus dose 0.37 mg/kg, 5 male Wistar rats, read-out: plasma concentration, mean value of 5 rats) was 377 nM and the concentration at 50 min ([7]; 50 min after i.v. bolus dose 0.37 mg/kg, 5 male Wistar rats, read-out: plasma concentrations, range over 5 rats) was 320 to 467 nM. The concentration at 50 min ([7]; individual rats N1-N5, 50 min after i.v. bolus dose 0.37 mg/kg, n = 3 analyses, read-out: Plasma Concentration) was 374 nM, the concentration at 50 min ([7]; individual rats N1-N5, 50 min after i.v. bolus dose 0.37 mg/kg, n = 3 analyses, read-out: Plasma Concentration (ng/mL)) was 104 ng/mL and the IC50 [2] was 210 nM.
In the case of `CN1C(=O)C(Cc2c[nH]c3ccccc23)NC1=S` (centres unmarked) [Nec-1, 5-(indol-3-ylmethyl)(2-thio-3-methyl)hydantoin], the “aortic diameter vs control” value ([4]; p = 0.1) is listed as “smaller but the difference was not statistically significant”, the “effect on IDO” value [1] is listed as “concomitant inhibition of indoleamine 2,3-dioxygenase (IDO)” and the “concentration level at 5 min after i.v. administration” value ([8]; i.v., 5 min) is listed as 1733 ng/mL. The “concentration level at 1 h after i.v. administration” value ([8]; i.v., 1 h) was 617 ng/mL, the “concentration level at 8 h after i.v. administration” value ([8]; i.v., 8 h) was less than 100 ng/mL and the “concentration after 8 h, oral administration” value ([8]; oral, after 8 h) was “undetectable”. The “peak concentration after oral administration” value ([8]; oral) was 648 ng/mL, the “time of peak concentration after oral administration” value ([8]; oral) was 1 h and the IC50 [2] was 494 nM.
